From patent US20190388389A1, “METHODS AND COMPOSITIONS OF CARNOSOL FOR INHIBITING UVB-INDUCED SKIN DAMAGE” (Ohio University, priority 2017, published 2019)

Experiments:
[1] = tested on: 6-4 photoproducts (6-4PP); assay: Quantitative measurement of 6-4 photoproducts after UVB; type: cell-based; conditions: with vs without carnosol
Source text: FIG. 5F: Quantitative measurement of 6-4 photoproducts (6-4PP), with and without UVB, and with and without carnosol. *p<0.05 versus corresponded control group
There are two major forms of DNA damage caused by UVB radiation: one is the direct DNA damage which forms CPD; the other is the oxidation-caused DNA damage, which causes the formation of 6-4 PP. In order to identify which form of DNA damage is protected by carnosol, a quantitative assay to identify the production of both DNA damage products after UVB radiation with or without carnosol treatment was performed.

phosphor-Chk = assay: Western blot of DNA damage marker, MEF cells; type: cell-based, mouse; conditions: early stage post UVB 50 mJ/cm^2
Experimental: (§1) FIGS. 5A-5B: Carnosol protects UVB-induced DNA damage. (FIG. 5A) HaCaT cells and (FIG. 5B) MEF cells were exposed to 50 mJ/cm^2 UVB radiation in the presence or absence of carnosol. Cells were lysed at indicated time point and protein levels of phosphorylated H2AX and Chk were measured. The data represents three sets of independent experiments.
(§2) Cells were lysed with Nonidet P-40 (NP-40) lysis buffer (2% NP-40, 80 mM NaCl, 100 mM Tris-HCl pH 8.0, 0.1% SDS) with proteinase inhibitor mixture (Complete™, Roche Molecular Biochemicals) at indicated time point. Cell lysate was incubated on ice for 15 min and then centrifuged at 14,000 rpm at 4° C. for 15 min. Protein concentration was measured by Protein DC Assay kit (Bio-Rad Laboratories). Equal amounts of protein were subjected on SDS-PAGE and transferred to a nitrocellulose membrane. The membrane was then blocked in 5% milk in Tris buffered saline plus Tween 20 ® (TBST) for 45 min and probed with anti-yH2AX (Cell Signaling), anti-pCHK (Cell Signaling), anti-p276-NF-κB (Santa Cruz), anti-NF-κB p65 (Santa Cruz), anti-IκB (Santa Cruz), or anti-β-actin (Santa Cruz) at 4° C. overnight. After washing with TBST, the membrane was incubated with corresponding HRP-conjugated anti-rabbit or anti-mouse antibody for 45 min at room temperature. […]

[2] = tested on: γH2AX (phosphorylated H2AX); assay: Western blot of DNA damage marker, MEF cells; type: cell-based, mouse; conditions: early stage post UVB 50 mJ/cm^2
Experimental: as §1, §2

[3] = tested on: A431 human squamous carcinoma cell; assay: Clonogenic assay, A431; type: cell-based
Experimental: FIGS. 9A-9B. Carnosol decreases A431 cancer cell progression. Squamous carcinoma cell A431 was used to determine the effect of carnosol on cancer cell progression. (FIG. 9A) Effect of carnosol on cell viability. Cells were treated upon 50 mJ/cm^2 UVB radiation with or without carnosol treatment. After 24 h, cells were collect and MTT assay was performed to determine the cell viability. *p<0.05 versus control group, **p<0.05 versus UV group at indicated time point. (FIG. 9B) Effect of carnosol on clonogenic assay. Cells were exposed to 8 mJ/cm^2 UVB exposure in the presence or absence of carnosol. 5×10^3 cells were plated into 6 well plate immediately after treatment and incubated for […]. The error bars present the standard deviation of three sets of independent experiments. *p<0.05 versus control group, **p<0.05 versus UV group at indicated time point.
Immediate after treatment, cells were harvested with 0.25% trypsin-EDTA and counted, and then 5×10^3 cells were plated in 6-well plates. After 6 days, cells were fixed with cold methanol for 10 mM at […] and then stained by 1% crystal violet in 25% methanol for 10 mM. Cells were then rinsed with distilled water and colonies with a size greater than 0.4 mm were counted by Kodak IS in vivo F system equipped with Kodak Molecular Imaging Software (Eastman Kodak).

SMILES: CC(C)c1cc2c(c(O)c1O)[C@@]13CCCC(C)(C)[C@@H]1C[C@@H]2OC3=O [carnosol]
- 6-4 PP formation after UVB radiation [1]: no significant reduction
- phosphorylation level of Chk (phosphor-Chk): reduced
- phosphorylation level of H2AX [2]: reduced
- effect of double treatment on reduction of cancer cell survival ([3]; A431, carnosol and UVB radiation together): synergistic effect
- colony formation ([3]; A431, carnosol combined with 8 mJ/cm^2 UVB, UVB alone about 43%): about 17%
- colony formation rate ([3]; A431, carnosol treatment alone): about 65%
